Test results from ChEMBL document CHEMBL5230093, “The importance of indole and azaindole scaffold in the development of antitumor agents” (Eur J Med Chem, 2020).
Values belong to the compound of their own block, whether it stands above or below them.

Key:
HCT-116 [1] = test: Potency index, ratio of doxorubicin IC50 to compound IC50 for anticancer activity against human HCT-116 cells; assay type: functional
MCF7 [2] = test: Potency index, ratio of doxorubicin IC50 to compound IC50 for anticancer activity against human MCF7 cells; assay type: functional
HepG2 [3] = test: Potency index, ratio of doxorubicin IC50 to compound IC50 for anticancer activity against human HepG2 cells; assay type: functional
HCT-116 [4] = test: Cytotoxicity against human HCT-116 cells; assay type: functional, cell-based
MCF7 [5] = test: Antiproliferative activity against human MCF7 cells by SRB assay; assay type: functional, cell-based
HeLa [6] = test: Antiproliferative activity against human HeLa cells measured after 48 hrs by CCK-8 method; assay type: functional, cell-based
A549 [7] = test: Cytotoxicity against human A549 cells assessed as reduction in cell growth; assay type: functional, cell-based
HeLa [8] = test: Cytotoxicity against human HeLa cells; assay type: functional, cell-based
MCF7 [9] = test: Cytotoxicity against human MCF7 cells; assay type: functional, cell-based
HepG2 [10] = test: Anticancer activity against human HepG2 cells incubated for 24 hrs by SRB method; assay type: functional, cell-based; conditions: HepG2, 24 h
MCF7 [11] = test: Anticancer activity against human MCF7 cells incubated for 24 hrs by SRB method; assay type: functional, cell-based; conditions: MCF7, 24 h
HCT-116 [12] = test: Anticancer activity against human HCT-116 cells incubated for 24 hrs by SRB method; assay type: functional, cell-based; conditions: HCT-116, 24 h
Tubulin = test: Inhibition of tubulin polymerization (unknown origin); assay type: protein-complex assay, Homo sapiens
MCF7 [13] = test: Antiproliferative activity against human MCF7 cells; assay type: functional, cell-based
[14] = Cytotoxicity against human Triple-negative breast cancer cells; assay type: functional, cell-based; conditions: Triple-negative breast cancer cell
[15] = Antiproliferative activity against human SUIT-2 cells; assay type: functional, cell-based
[16] = Inhibition of cell migration of human SUIT-2 cells; assay type: functional, cell-based
MCF7 [17] = test: Cytotoxicity against human MCF7 cells assessed as reduction in cell growth measured after 2 days by MTT assay; assay type: functional, cell-based; conditions: MCF7, 48 h
HeLa [18] = test: Antiproliferative activity against human HeLa cells measured after 48 hrs by MTT assay; assay type: functional, cell-based
HepG2 [19] = test: Antiproliferative activity against human HepG2 cells measured after 48 hrs by MTT assay; assay type: functional, cell-based; conditions: HepG2, 48 h
MCF7 [20] = test: Antiproliferative activity against human MCF7 cells measured after 48 hrs by MTT assay; assay type: functional, cell-based; conditions: MCF7, 48 h
[21] = Resistance factor, ratio of IC50 for human K562/VCR cells to IC50 for K562 cells; assay type: functional; conditions: time 72 hrs
[22] = test system: Panel NCI-60 (60 carcinoma cell lines); test: Antiproliferative activity against human Panel NCI-60 (60 carcinoma cell lines) cells; assay type: functional
UO-31 = test: Antiproliferative activity against human UO-31 cells; assay type: functional
A549 [23] = test: Antitumor activity against human A549 cells xenografted in mouse model assessed as tumor growth inhibition relative to control; assay type: functional; parameters: scale not given: the % may be the effect or the level left
HepG2 [24] = test: Cytotoxicity against human HepG2 cells; assay type: functional, cell-based
HeLa [25] = test: Anticancer activity against human HeLa cells by MTT assay; assay type: functional, cell-based; conditions: pooled result: one value given for 4 cell lines, strains, targets or settings
HCT-15 = test: Antiproliferative activity against human HCT-15 cells; assay type: functional, cell-based
MDA-MB-231 = test: Cytotoxicity against human MDA-MB-231 cells measured after 72 hrs; assay type: functional, cell-based; conditions: MDA-MB-231, 72 h
A549 [26] = test: Cytotoxicity against human A549 cells; assay type: functional, cell-based
DU-145 = test: Antiproliferative activity against human DU-145 cells; assay type: functional, cell-based
NCI-H460 = test: Growth inhibition of human NCI-H460 cells; assay type: functional
BXPC-3 = test: Growth inhibition of human BXPC-3 cells; assay type: functional
PANC-1 = test: Growth inhibition of human PANC-1 cells; assay type: functional
[27] = molecular target: Bromodomain-containing protein 4 (Homo sapiens) (UniProt O60885); test: Inhibition of GST tagged BRD4 (unknown origin) at 10 uM by HTRF assay relative to control
THP-1 = test: Antiproliferative activity against human THP-1 cells incubated for 24 hrs by trypan blue reagent based analysis; assay type: functional, cell-based; conditions: THP-1, 24 h
Histone deacetylase 4 = Histone deacetylase 4 (Homo sapiens, UniProt P56524); test: Inhibition of human recombinant HDAC4 using Boc-Lys(Ac)-AMC as substrate preincubated for 15 mins followed by substrate addition and measured after 60 mins by fluorescence based analysis
Chain of Histone deacetylase 4 (P56524 whole entry): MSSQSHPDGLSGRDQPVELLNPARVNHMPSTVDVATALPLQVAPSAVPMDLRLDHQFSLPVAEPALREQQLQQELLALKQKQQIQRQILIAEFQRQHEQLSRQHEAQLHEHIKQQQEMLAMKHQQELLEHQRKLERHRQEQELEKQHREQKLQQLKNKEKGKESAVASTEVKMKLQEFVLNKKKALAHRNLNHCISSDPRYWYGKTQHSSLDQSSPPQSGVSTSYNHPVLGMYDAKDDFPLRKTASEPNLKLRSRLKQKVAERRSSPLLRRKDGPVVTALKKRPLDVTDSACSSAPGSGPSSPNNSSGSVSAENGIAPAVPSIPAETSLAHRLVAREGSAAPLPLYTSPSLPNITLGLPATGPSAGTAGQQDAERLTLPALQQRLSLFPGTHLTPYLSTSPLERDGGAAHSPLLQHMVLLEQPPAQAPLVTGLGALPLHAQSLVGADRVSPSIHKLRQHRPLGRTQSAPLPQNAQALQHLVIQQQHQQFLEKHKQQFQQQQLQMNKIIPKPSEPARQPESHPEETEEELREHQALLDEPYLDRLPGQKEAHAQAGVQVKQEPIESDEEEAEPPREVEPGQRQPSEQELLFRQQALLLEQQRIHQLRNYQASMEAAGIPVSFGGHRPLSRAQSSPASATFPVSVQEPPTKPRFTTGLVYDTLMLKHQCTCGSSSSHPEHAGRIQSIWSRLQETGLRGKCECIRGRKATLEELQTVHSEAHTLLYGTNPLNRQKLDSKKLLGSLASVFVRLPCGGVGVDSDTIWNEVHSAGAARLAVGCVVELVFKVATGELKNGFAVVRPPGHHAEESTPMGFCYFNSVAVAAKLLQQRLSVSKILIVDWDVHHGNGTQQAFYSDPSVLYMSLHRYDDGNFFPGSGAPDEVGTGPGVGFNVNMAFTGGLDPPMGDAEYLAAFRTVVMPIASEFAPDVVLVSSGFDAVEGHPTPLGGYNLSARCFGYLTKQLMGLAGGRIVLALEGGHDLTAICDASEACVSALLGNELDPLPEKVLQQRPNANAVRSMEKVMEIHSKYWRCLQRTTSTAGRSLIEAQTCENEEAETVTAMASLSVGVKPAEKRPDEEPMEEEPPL

SMILES: N=c1nc(-c2cn(S(=O)(=O)c3ccccc3)c3ccccc23)cc(-c2cccc(O)c2)[nH]1
Ratio IC50 (HCT-116 [1]): >8
Ratio IC50 (MCF7 [2]): >8
Ratio IC50 (HepG2 [3]): >8

SMILES: Cn1cc(-c2nc(-c3cn(C)c4ncc(Cl)cc34)no2)c2cc(Br)ccc21
IC50 (HCT-116 [4]): 1.93 µM

IC50 (MCF7 [5]): 22.3 µM
SMILES: N#Cc1ccc(Cn2cc(/C=N/NC(=O)Cc3c[nH]c4ncccc34)c3cc(Br)ccc32)cc1

IC50 (HeLa [6]): 0.015 µM
SMILES: COc1cc(/C=C/c2ncc([N+](=O)[O-])n2CCOC(=O)c2c[nH]c3ccccc23)cc(OC)c1OC

SMILES: CS(=O)(=O)n1cc(-c2cc(-c3cccc(O)c3)[nH]c(=S)n2)c2ccccc21
Ratio IC50 (HCT-116 [1]): >8
Ratio IC50 (MCF7 [2]): >8
Ratio IC50 (HepG2 [3]): >8

SMILES: COc1cc(C(c2c[nH]c3ccccc23)c2c[nH]c3ccccc23)cc(Cl)c1O
IC50 (A549 [7]): 0.34 µM
IC50 (HeLa [8]): 0.37 µM

SMILES: COc1cnc2c(c1)c(-c1noc(-c3cn(C)c4ccc(Br)cc34)n1)cn2C
IC50 (HCT-116 [4]): 3.55 µM

SMILES: O=C(Nc1ccc(Br)cc1)c1coc(-c2c[nH]c3cccnc23)n1
IC50 (MCF7 [9]): 0.36 µM

IC50 (HepG2 [10]): < 10 µM
IC50 (MCF7 [11]): < 10 µM
IC50 (HCT-116 [12]): < 10 µM
SMILES: CCOC(=O)/C(C#N)=C1/C(=O)Nc2ccc(S(=O)(=O)N3CCOCC3)cc21

IC50 (HepG2 [10]): < 10 µM
IC50 (MCF7 [11]): < 10 µM
IC50 (HCT-116 [12]): < 10 µM
SMILES: O=C(O)C1=C2C(=Nc3ccc(S(=O)(=O)N4CCOCC4)cc32)NC1=O

IC50 (Tubulin): 3.89 µM
IC50 (MCF7 [13]): 2.42 µM
SMILES: O=C(c1nnc(Nc2ccccc2F)o1)c1c[nH]c2ccccc12

SMILES: O=C(Nc1cc([N+](=O)[O-])cc([N+](=O)[O-])c1)c1coc(-c2c[nH]c3cccnc23)n1
IC50 (MCF7 [9]): 0.034 µM

SMILES: Cc1cccc2c(C(c3ccc(O)cc3)c3c[nH]c4c(C)cccc34)c[nH]c12
IC50 [14]: 10 µM

IC50 [16]: < 10 µM
SMILES: COc1ccc(OC)c(-c2cn3nc(-c4cn(C)c5ccc(Br)cc45)sc3n2)c1
IC50 [15]: < 10 µM

IC50 (MCF7 [5]): 22.3 µM
SMILES: COc1ccc2c(c1)c(/C=N/NC(=O)Cc1c[nH]c3ncccc13)cn2Cc1ccc(Br)cc1

SMILES: Nc1ccccc1Oc1cccc(C(c2c[nH]c3ccc(Cl)cc23)c2c[nH]c3ccc(Cl)cc23)c1
IC50 (MCF7 [17]): 34.8 µM

IC50 (HeLa [18]): 3.7 µM
IC50 (HepG2 [19]): 8 µM
IC50 (MCF7 [20]): 19.9 µM
SMILES: Nc1c(C(=O)c2cccc3ccccc23)[nH]c2ncccc12

IC50 (MCF7 [5]): 22.3 µM
SMILES: O=C(Cc1c[nH]c2ncccc12)N/N=C/c1cn(Cc2ccc(Cl)cc2Cl)c2ccc(Br)cc12

SMILES: COc1cc([C@@H]2c3cc4c(cc3[C@H](OC(=O)Cc3ccc5cc[nH]c5c3)[C@H]3COC(=O)[C@H]23)OCO4)cc(OC)c1OC
Ratio IC50 [21]: 2.27

SMILES: CS(=O)(=O)n1cc(-c2cc(-c3cccc(O)c3)[nH]c(=N)n2)c2ccccc21
Ratio IC50 (HCT-116 [1]): >8
Ratio IC50 (MCF7 [2]): >8
Ratio IC50 (HepG2 [3]): >8

IC50 [16]: < 10 µM
SMILES: COc1ccc(OC)c(-c2cn3nc(-c4c[nH]c5ccc(Br)cc45)sc3n2)c1
IC50 [15]: < 10 µM
GI50 [22]: 10.3 µM
GI50 (UO-31): 1.67 µM

SMILES: COc1cccc2c1C(=O)c1c(O)c3c(c(O)c1C2=O)C[C@@](O)(C(=O)CO)C[C@@H]3O[C@H]1C[C@H](N)[C@H](O)[C@H](C)O1 [DOXORUBICIN]
Activity (A549 [23]): 53.3%

SMILES: Cn1cc(C2=C(C#N)C(c3ccc(Cl)cc3)c3c(nc(N)[nH]c3=O)N2)c2ccccc21 (configuration not stated)
IC50 (HepG2 [24]): 3.57 µM

SMILES: O=c1nc(-c2cn(S(=O)(=O)c3ccccc3)c3ccccc23)cc(-c2cccc(O)c2)[nH]1
Ratio IC50 (HCT-116 [1]): >8
Ratio IC50 (MCF7 [2]): >8
Ratio IC50 (HepG2 [3]): >8

SMILES: Nc1ccccc1Oc1cccc(C(c2c[nH]c3ccccc23)c2c[nH]c3ccccc23)c1
IC50 (MCF7 [17]): 23.6 µM

IC50 (HeLa [25]): 9.42 µM
SMILES: CC(C)(C)OC(=O)N1CCC2C(C1)c1cc(Br)ccc1N2S(=O)(=O)c1ccc(Cl)cc1 (configuration not stated)

IC50 (HCT-15): 0.92 µM
SMILES: COc1ccc(CC/N=C2\NC(=O)/C(=C/c3c[nH]c4ccc(Br)cc34)S2)cc1

IC50 (HepG2 [10]): < 10 µM
IC50 (MCF7 [11]): < 10 µM
IC50 (HCT-116 [12]): < 10 µM
SMILES: CC(=O)Nc1cccc(C(=O)/C=C2\C(=O)Nc3ccc(S(=O)(=O)N4CCOCC4)cc32)c1

SMILES: CS(=O)(=O)n1cc(-c2cc(-c3cccc(O)c3)[nH]c(=O)n2)c2ccccc21
Ratio IC50 (HCT-116 [1]): >8
Ratio IC50 (MCF7 [2]): >8
Ratio IC50 (HepG2 [3]): >8

IC50 (MCF7 [5]): 22.3 µM
SMILES: COc1ccc2c(c1)c(/C=N/NC(=O)Cc1c[nH]c3ncccc13)cn2Cc1ccc(F)cc1F

IC50 (MCF7 [5]): 22.3 µM
SMILES: O=C(Cc1c[nH]c2ncccc12)N/N=C/c1cn(Cc2ccc(Cl)cc2Cl)c2ccccc12

SMILES: CCCCCc1cc2cc(C)cc(/N=C/c3[nH]c(C)c(CCCCC)c3C)c2[nH]1
IC50 (MDA-MB-231): 4.2 µM

SMILES: CNC(=S)N/N=C/c1c(-c2ccc(OC)cc2)[nH]c2ccccc12
IC50 (A549 [26]): 12.5 µM
Ratio IC50 [21]: 2.27

IC50 (HepG2 [10]): < 10 µM
IC50 (MCF7 [11]): < 10 µM
IC50 (HCT-116 [12]): < 10 µM
SMILES: COC(=O)c1ccc(C(=O)/C=C2\C(=O)Nc3ccc(S(=O)(=O)N4CCOCC4)cc32)cc1

IC50 (DU-145): 9.8 µM
SMILES: COc1cc([C@@H]2c3cc4c(cc3[C@@H](O[C@@H]3O[C@@H]5CO[C@@H](C)O[C@H]5[C@H](O)[C@H]3O)[C@H]3COC(=O)[C@H]23)OCO4)cc(OC)c1O [ETOPOSIDE]

GI50 (NCI-H460): 7.62 µM
GI50 (BXPC-3): 7.62 µM
GI50 (PANC-1): 7.62 µM
SMILES: C[C@H]1NC(=O)[C@@H](Cc2c[nH]c3ccccc23)n2c1nc1ccccc1c2=O [FUMIQUINAZOLINE G]

SMILES: COc1cc2cc(C(=O)N3CCC=C(Cl)C3=O)n(C)c2c(OC)c1OC
Activity (A549 [23]): 54.6%

IC50 (HepG2 [10]): < 10 µM
IC50 (MCF7 [11]): < 10 µM
IC50 (HCT-116 [12]): < 10 µM
SMILES: N#CC(C#N)=C1C(=O)Nc2ccc(S(=O)(=O)N3CCOCC3)cc21

SMILES: Cc1noc(C)c1-c1ccc2c(c1)c(Cc1ccc(F)cc1)cn2CCCCCCCC(=O)NO
inhibition [27]: 88%
IC50 (THP-1): 15.5 µM
IC50 (Histone deacetylase 4): 0.005 µM
